Test results published in patent US7700584B2 (Hangzhou Minsheng Pharmaceuticals Co., Ltd., priority 2004, dated 2010).
Converted amounts (≈) assume the structure as drawn. Counter-ions that a name gives are not always drawn. Like-named read-outs stand apart in the source and are kept apart here.

What was measured:
[1] = tested on: HL-60 human promyelocytic leukemia; experiment: In vitro anti-tumor IC50 (MTT), HL-60; assay type: cell-based; settings: Homo sapiens, HL-60; Table 4; read-out: IC50 (ug/ml) against tumor cell lines, HL-60
Procedure: (1) Single cell suspension was seeded into 96-well plates (the cells was diluted in the PRMI-1640 minimum medium to 3×10^4 cells/ml, […] diluted cells/well). […] The experiments were performed in quadruplicate.
(2) The medium was removed. Solutions of the anti-tumor agents (50 compounds) were prepared in a freshly prepared medium at serial concentrations. […] of the solution was added into each well. Incubation was continued for 48 hours.
(3) 20 ug of 2 mg/ml MTT was added into each well, and incubated for 4 hours.
(4) The medium was removed from the well. The microplates were swiftly turned down to throw-off the medium. […] of DMSO was added into each well, and vortexed at room temperature for 10 minutes.
(5) OD value (λ=570 nm) was measured with an Enzyme-Linked Detector.
(6) The graph of cell vitality was plotted, and IC50 was calculated.

[2] = tested on: HL-60 human promyelocytic leukemia; experiment: In vitro inhibition rate to tumor cells (MTT), HL-60; assay type: cell-based; settings: Homo sapiens, HL-60, 50 μg/ml, read-out: inhibition rate, Results (%) HL-60
[3] = tested on: U-937 human histocytic lymphoma; experiment: In vitro anti-tumor IC50 (MTT), U-937; assay type: cell-based; settings: Homo sapiens, U-937; Table 4; read-out: IC50 (ug/ml) against tumor cell lines, U-937
[4] = target: T1, HIV-1 reverse transcriptase (Human immunodeficiency virus type 1 group M subtype B, UniProt P04585); experiment: Screening for the in vitro activity against the HIV-1 reverse transcriptase; assay type: biochemical; settings: IC50, initial concentration 200 μg/ml
T1 construct: purchased
In short: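 Each sample, taken from DMSO through five 5-fold water dilutions, was incubated with recombinant RT and Biotin-dUTP substrate. Enzyme activity was quantified as biotin label incorporated into the plate-bound template, using streptavidin-HRP with absorbance at 450 nm.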

[5] = tested on: Bel-7402 human hepatic carcinoma; experiment: In vitro inhibition rate to tumor cells (MTT), Bel-7402; assay type: cell-based; settings: for inhibition at 50 µg/mL: Homo sapiens, Bel-7402, 50 μg/ml, read-out: inhibition rate, Results (%) Bel-7402; for inhibition rate, Results (%) Bel-7402: 50 μg/ml
[6] = tested on: A-549 human lung adenocarcinoma; experiment: In vitro inhibition rate to tumor cells (MTT), A-549; assay type: cell-based; settings: for inhibition at 50 µg/mL: Homo sapiens, A549, 50 μg/ml, read-out: inhibition rate, Results (%) A-549; for inhibition rate, Results (%) A-549: 50 μg/ml
[7] = tested on: Hela human cervical carcinoma; experiment: In vitro inhibition rate to tumor cells (MTT), Hela; assay type: cell-based; settings: Homo sapiens, HeLa, 50 μg/ml, read-out: inhibition rate, Results (%) Hela
[8] = tested on: U-937 human histocytic lymphoma; experiment: In vitro inhibition rate to tumor cells (MTT), U-937; assay type: cell-based; settings: Homo sapiens, U-937, 50 μg/ml, read-out: inhibition rate, Results (%) U-937
[9] = tested on: SMMC-7721 human hepatic carcinoma; experiment: In vitro inhibition rate to tumor cells (MTT), SMMC-7721; assay type: cell-based; settings: for inhibition at 50 µg/mL: Homo sapiens, SMMC-7721, 50 μg/ml, read-out: inhibition rate, Results (%) SMMC-7721; for inhibition rate, Results (%) SMMC-7721: 50 μg/ml
[10] = tested on: Hela human cervical carcinoma; experiment: In vitro anti-tumor IC50 (MTT), Hela; assay type: cell-based; settings: Homo sapiens, HeLa; Table 4; read-out: IC50 (ug/ml) against tumor cell lines, Hela
[11] = tested on: LLC mouse Lewis lung carcinoma; experiment: In vitro inhibition rate to tumor cells (MTT), LLC; assay type: cell-based; settings: 50 μg/ml; for inhibition at 50 µg/mL: Mus musculus, Lewis lung carcinoma
[12] = tested on: MCF-7 human mammary adenocarcinoma; experiment: In vitro inhibition rate to tumor cells (MTT), MCF-7; assay type: cell-based; settings: for inhibition at 50 µg/mL: Homo sapiens, MCF7, 50 μg/ml, read-out: inhibition rate, Results (%) MCF-7; for inhibition rate, Results (%) MCF-7: 50 μg/ml
[13] = target: T2, HIV-1 proteinase (HIV-1 PR) (Human immunodeficiency virus type 1 group M subtype B, UniProt P04585); experiment: Screening for in vitro activity against HIV-1 proteinase; assay type: biochemical; settings: for inhibition at 0.08 µg/mL: 0.08 μg/ml; for inhibition at 0.08 µg/mL / inhibition at 2 µg/mL / inhibition at 0.4 µg/mL / inhibition at 10 µg/mL: read-out: Inhibition rate; for inhibition at 2 µg/mL: 2.0 μg/ml; for IC50: IC50, five 5× serial dilutions from 50 μg/ml; for inhibition at 50 µg/mL: read-out: Inhibition rate, 50 μg/ml
T2 construct: HIV-1 proteinase digests the fluorescent-labeled substrate; purchased
In short: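 Inhibition was scored from product fluorescence after the enzyme was added to buffer holding the labeled substrate and the test sample. Samples were five serial 5× dilutions in water from a DMSO solution. Indinavir served as the reference control; the enzyme was recombinant HIV-1 PR.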

293 cells = experiment: Cell status of 293 cells treated with sample alone (herpes virus screening); settings: 200 μg/ml, 24 hrs

| Compound | IC50 [1] | inhibition at 50 µg/mL ([2]; Table 1) | inhibition at 50 µg/mL ([2]; Table 2 (repeated screening)) | inhibition at 50 µg/mL ([2]; Table 3 (repeated screening)) | IC50 [3] | IC50 [4] | inhibition at 50 µg/mL ([5]; Table 1) | inhibition at 50 µg/mL ([5]; Table 2 (repeated screening)) | inhibition at 50 µg/mL ([6]; Table 1) | inhibition at 50 µg/mL ([6]; Table 2 (repeated screening)) | inhibition at 50 µg/mL ([7]; Table 1) | inhibition at 50 µg/mL ([7]; Table 2 (repeated screening)) | inhibition at 50 µg/mL ([7]; Table 3 (repeated screening)) | inhibition at 50 µg/mL ([8]; Table 1) | inhibition at 50 µg/mL ([8]; Table 2 (repeated screening)) | IC50 [10] | inhibition at 0.08 µg/mL [13] | inhibition at 2 µg/mL [13] | IC50 [13] | Cytopathy and cell status, Sample (293 cells) | other results |
| --- | --- | --- | --- | --- | --- | --- | --- | --- | --- | --- | --- | --- | --- | --- | --- | --- | --- | --- | --- | --- | --- |
| CC(C)C1CC23OC1(O)CC(=CN1CCNCC1)C2CCC3C (centres unmarked) [Compound 7, Curcumol piperazine] | 1.61 µg/mL (≈ 5.02 µM) | 90.6% | 91% | 90.2% | 0.76 µg/mL (≈ 2.37 µM) | > 624 µM | 55.4% | 60.2% | 65.3% | 67.2% | 90.4% | 89.3% | 89.1% | 93% | 90% | 0.6 µg/mL (≈ 1.87 µM) | 14.1% | 4.31% | > 156 µM | Good | inhibition at 50 µg/mL ([5]; Table 3 (repeated screening)): 65.2%; inhibition at 50 µg/mL ([6]; Table 3 (repeated screening)): 65.3%; inhibition at 50 µg/mL ([8]; Table 3 (repeated screening)): 91.2%; inhibition at 50 µg/mL ([9]; Table 1): 3.34%; inhibition at 50 µg/mL ([9]; Table 2 (repeated screening)): 1.23%; inhibition rate, Results (%) LLC ([11]; Table 1): 85.42%; inhibition rate, Results (%) LLC ([11]; Table 2 (repeated screening)): −2.99%; inhibition rate, Results (%) LLC ([11]; Table 3 (repeated screening)): −3.66%; inhibition at 50 µg/mL ([12]; Table 1): 88.3%; inhibition at 50 µg/mL ([12]; Table 2 (repeated screening)): 85%; inhibition at 50 µg/mL ([12]; Table 3 (repeated screening)): 84.1%; Inhibition rate ([13]; 0.40 μg/ml): 6.32; Inhibition rate ([13]; 10 μg/ml): 3.51; inhibition at 50 µg/mL [13]: 1.43% |
| CC(C)C1CC23OC1(O)CC(=CN1CCNCC1)C2CCC3C (centres unmarked) [Compound 8, Curcumol piperazine hydrochloride] | 1.68 µg/mL | 92% | 90.2% | 91.1% | 0.81 µg/mL | > 624 µM | 54.3% | 50.5% | 60.5% | 58.6% | 91.9% | 92% | 91.5% | 90.3% | 91.3% | 0.59 µg/mL | 9.74% | 5.27% | > 156 µM | Good | inhibition at 50 µg/mL ([5]; Table 3 (repeated screening)): 54.9%; inhibition at 50 µg/mL ([6]; Table 3 (repeated screening)): 55.9%; inhibition at 50 µg/mL ([8]; Table 3 (repeated screening)): 94.4%; inhibition at 50 µg/mL ([9]; Table 1): 4.5%; inhibition at 50 µg/mL ([9]; Table 2 (repeated screening)): 2.3%; inhibition at 50 µg/mL ([9]; Table 3 (repeated screening)): 7.98%; inhibition at 50 µg/mL ([11]; Table 1): 12.1%; inhibition at 50 µg/mL ([11]; Table 2 (repeated screening)): 1.02%; inhibition at 50 µg/mL ([11]; Table 3 (repeated screening)): 3.12%; inhibition at 50 µg/mL ([12]; Table 1): 89.1%; inhibition at 50 µg/mL ([12]; Table 2 (repeated screening)): 85.2%; inhibition at 50 µg/mL ([12]; Table 3 (repeated screening)): 86.2%; inhibition at 0.4 µg/mL ([13]; 0.40 μg/ml): 2.64%; inhibition at 10 µg/mL ([13]; 10 μg/ml): 0.62%; inhibition at 50 µg/mL [13]: 1.4% |
| CC(C)C1CC23OC1(O)CC(=CBr)C2CCC3C (centres unmarked) [Compound 17, Curcumol monobromide] | 1.85 µg/mL | 92.3% | 90.1% |  | 0.92 µg/mL | > 634 µM | -12.4% | -10.9% | 4.68% | 5.23% | 91.6% | 92.4% |  | 87.2% | 85.1% | 1.5 µg/mL | 3.78% | -6% | > 159 µM | Good | inhibition at 50 µg/mL ([9]; Table 1): 10.2%; inhibition at 50 µg/mL ([9]; Table 2 (repeated screening)): 0.32%; inhibition at 50 µg/mL ([11]; Table 1): 7.27%; inhibition at 50 µg/mL ([11]; Table 2 (repeated screening)): 2.31%; inhibition at 50 µg/mL ([12]; Table 1): 53.9%; inhibition at 50 µg/mL ([12]; Table 2 (repeated screening)): 50.3%; inhibition at 0.4 µg/mL ([13]; 0.40 μg/ml): 10.7%; inhibition at 10 µg/mL ([13]; 10 μg/ml): 6.15%; inhibition at 50 µg/mL [13]: 9.94% |
| C=C1CC2(OS(=O)(=O)O)OC3(CC2C(C)C)C(C)CCC13 (centres unmarked) [Compound 20, Curcumol sulfonate] | 0.45 µg/mL | 91.3% | 92.4% | 91.7% | 0.95 µg/mL | > 632 µM | 7.89% |  |  | 13% | 94.2% | 90.6% | 92.5% | 89.2% | 90.3% | 0.89 µg/mL | 8.76% | 10.6% | > 158 µM | Good | inhibition rate, Results (%) Bel-7402 ([5]; Table 2 (repeated screening)): 5.36%; inhibition rate, Results (%) Bel-7402 ([5]; Table 3 (repeated screening)): 1.23%; inhibition rate, Results (%) A-549 ([6]; Table 1): 12.50%; inhibition rate, Results (%) A-549 ([6]; Table 3 (repeated screening)): 14.32%; inhibition at 50 µg/mL ([8]; Table 3 (repeated screening)): 90%; inhibition rate, Results (%) SMMC-7721 ([9]; Table 1): 18.08%; inhibition rate, Results (%) SMMC-7721 ([9]; Table 2 (repeated screening)): 1.23%; inhibition rate, Results (%) SMMC-7721 ([9]; Table 3 (repeated screening)): 6.56%; inhibition rate, Results (%) LLC ([11]; Table 2 (repeated screening)): 9.37%; inhibition rate, Results (%) LLC ([11]; Table 3 (repeated screening)): 15.32%; inhibition at 50 µg/mL ([11]; Table 1): 8.97%; inhibition rate, Results (%) MCF-7 ([12]; Table 1): 18.9%; inhibition rate, Results (%) MCF-7 ([12]; Table 2 (repeated screening)): 16.32%; inhibition rate, Results (%) MCF-7 ([12]; Table 3 (repeated screening)): 14.23%; inhibition at 0.4 µg/mL ([13]; 0.40 μg/ml): 7.44%; inhibition at 10 µg/mL ([13]; 10 μg/ml): 9.46%; Inhibition rate ([13]; 50 μg/ml): 12.68 |
